Converted amounts (≈) assume the structure as drawn. The source made the active and inactive calls. No cut-off for these calls is given here.
Assays:
[1] = system: Escherichia coli; assay: Antibacterial activity against Escherichia coli ATCC 25922 incubated for 16 to 20 hrs using 10^3 CFU/ml bacterial inoculum by broth microdilution method; format: functional; settings: time 16-20 hrs
[2] = system: Staphylococcus chromogenes; assay: Antibacterial activity against Staphylococcus chromogenes incubated for 16 to 20 hrs by broth microdilution method; format: functional; settings: time 16-20 hrs
[3] = system: Enterococcus faecium; assay: Antibacterial activity against Enterococcus faecium incubated for 16 to 20 hrs by broth microdilution method; format: functional; settings: time 16-20 hrs
[4] = system: Streptococcus dysgalactiae; assay: Antibacterial activity against Streptococcus dysgalactiae incubated for 16 to 20 hrs by broth microdilution method; format: functional; settings: time 16-20 hrs
[5] = system: Escherichia coli; assay: Antibacterial activity against Escherichia coli ATCC 25922 incubated for 16 to 20 hrs in presence of 25% foetal bovine serum by broth microdilution method; format: functional; settings: time 16-20 hrs
[6] = system: Escherichia coli; assay: Antibacterial activity against Escherichia coli ATCC 25922 incubated for 16 to 20 hrs by broth microdilution method; format: functional; settings: time 16-20 hrs
[7] = system: Escherichia coli; assay: Antibacterial activity against Escherichia coli ATCC 25922 incubated for 16 to 20 hrs in presence of 50% foetal bovine serum by broth microdilution method; format: functional; settings: time 16-20 hrs
[8] = system: Escherichia coli; assay: Antibacterial activity against Escherichia coli ATCC 25922 incubated for 16 to 20 hrs in presence of 5% foetal bovine serum by broth microdilution method; format: functional; settings: time 16-20 hrs
[9] = system: Staphylococcus aureus; assay: Antibacterial activity against Staphylococcus aureus incubated for 16 to 20 hrs by broth microdilution method; format: functional; settings: time 16-20 hrs
[10] = system: Staphylococcus aureus; assay: Antibacterial activity against Staphylococcus aureus ATCC 25923 incubated for 16 to 20 hrs by broth microdilution method; format: functional; settings: time 16-20 hrs
[11] = system: Cronobacter sakazakii; assay: Antibacterial activity against Cronobacter sakazakii ATCC 29544 incubated for 16 to 20 hrs by broth microdilution method; format: functional; settings: time 16-20 hrs
[12] = system: Escherichia coli; assay: Antibacterial activity against Escherichia coli ATCC 25922 incubated for 16 to 20 hrs using 10^4 CFU/ml bacterial inoculum by broth microdilution method; format: functional; settings: time 16-20 hrs
[13] = system: Escherichia coli; assay: Antibacterial activity against Escherichia coli ATCC 25922 incubated for 16 to 20 hrs using 10^5 CFU/ml bacterial inoculum by broth microdilution method; format: functional; settings: time 16-20 hrs
[14] = system: Klebsiella pneumoniae; assay: Antibacterial activity against Klebsiella pneumoniae ATCC 13883 incubated for 16 to 20 hrs by broth microdilution method; format: functional; settings: time 16-20 hrs
[15] = system: Escherichia coli; assay: Antibacterial activity against Escherichia coli ATCC 25922 incubated for 16 to 20 hrs using 10^6 CFU/ml bacterial inoculum by broth microdilution method; format: functional; settings: time 16-20 hrs
[16] = system: Escherichia coli; assay: Antibacterial activity against Escherichia coli ATCC 25922 incubated for 16 to 20 hrs in presence of 10% foetal bovine serum by broth microdilution method; format: functional; settings: time 16-20 hrs
[17] = system: Escherichia coli; assay: Antibacterial activity against Escherichia coli ATCC 25922 incubated for 16 to 20 hrs using 10^7 CFU/ml bacterial inoculum by broth microdilution method; format: functional; settings: time 16-20 hrs
[18] = system: Pseudomonas aeruginosa; assay: Antibacterial activity against Pseudomonas aeruginosa LTP-3 incubated for 16 to 20 hrs by broth microdilution method; format: functional; settings: time 16-20 hrs
[19] = system: Escherichia coli; assay: Antibacterial activity against Escherichia coli incubated for 16 to 20 hrs by broth microdilution method; format: functional; settings: time 16-20 hrs
[20] = system: Escherichia coli; assay: Antibacterial activity against Escherichia coli ATCC 25922 incubated for 16 to 20 hrs in absence of foetal bovine serum by broth microdilution method; format: functional; settings: time 16-20 hrs
[21] = system: Staphylococcus aureus; assay: Antibacterial activity against Staphylococcus aureus ATCC 29213 incubated for 16 to 20 hrs using 10^3 CFU/ml bacterial inoculum by broth microdilution method; format: functional; settings: time 16-20 hrs
[22] = system: Staphylococcus aureus; assay: Antibacterial activity against Staphylococcus aureus ATCC 29213 incubated for 16 to 20 hrs using 10^6 CFU/ml bacterial inoculum by broth microdilution method; format: functional; settings: time 16-20 hrs
[23] = system: Staphylococcus aureus; assay: Antibacterial activity against Staphylococcus aureus ATCC 29213 incubated for 16 to 20 hrs using 10^5 CFU/ml bacterial inoculum by broth microdilution method; format: functional; settings: time 16-20 hrs
[24] = system: Staphylococcus aureus; assay: Antibacterial activity against Staphylococcus aureus ATCC 29213 at pH 8.6 incubated for 16 to 20 hrs in presence of 5% foetal bovine serum by broth microdilution method; format: functional; settings: time 16-20 hrs
[25] = system: Staphylococcus aureus; assay: Antibacterial activity against Staphylococcus aureus ATCC 29213 at pH 8.6 incubated for 16 to 20 hrs in presence of 50% foetal bovine serum by broth microdilution method; format: functional; settings: time 16-20 hrs
[26] = system: Staphylococcus aureus; assay: Antibacterial activity against Staphylococcus aureus ATCC 29213 incubated for 16 to 20 hrs using 10^7 CFU/ml bacterial inoculum by broth microdilution method; format: functional; settings: time 16-20 hrs
[27] = system: Staphylococcus aureus; assay: Antibacterial activity against Staphylococcus aureus ATCC 29213 at pH 8.6 incubated for 16 to 20 hrs in presence of 25% foetal bovine serum by broth microdilution method; format: functional; settings: time 16-20 hrs
[28] = system: Staphylococcus aureus; assay: Antibacterial activity against Staphylococcus aureus ATCC 29213 at pH 8.6 incubated for 16 to 20 hrs in absence of foetal bovine serum by broth microdilution method; format: functional; settings: time 16-20 hrs
[29] = system: Staphylococcus aureus; assay: Antibacterial activity against Staphylococcus aureus ATCC 29213 incubated for 16 to 20 hrs using 10^4 CFU/ml bacterial inoculum by broth microdilution method; format: functional; settings: time 16-20 hrs
[30] = system: Staphylococcus aureus; assay: Antibacterial activity against Staphylococcus aureus ATCC 29213 at pH 8.6 incubated for 16 to 20 hrs in presence of 10% foetal bovine serum by broth microdilution method; format: functional; settings: time 16-20 hrs
[31] = system: Escherichia coli; assay: Ratio of MBC to MIC for Escherichia coli ATCC 25922; format: functional
[32] = system: Staphylococcus aureus; assay: Antibacterial activity against Staphylococcus aureus ATCC 29213 incubated for 16 to 20 hrs by broth microdilution method; format: functional; settings: time 16-20 hrs
[33] = system: Staphylococcus aureus; assay: Ratio of MBC to MIC for Staphylococcus aureus ATCC 29213; format: functional
[34] = system: Escherichia coli; assay: Inhibition of protein synthesis in Escherichia coli ATCC 25922 assessed as reduction in protein content at […] measured upto 12 hrs by microporous enzyme labeling method relative to control; format: functional
[35] = system: Escherichia coli; assay: Bactericidal activity against Escherichia coli ATCC 25922 incubated for 20 to 24 hrs by CLSI based analysis; format: functional; settings: time 20-24 hrs
[36] = system: Staphylococcus aureus; assay: Bactericidal activity against Staphylococcus aureus ATCC 29213 incubated for 20 to 24 hrs by CLSI based analysis; format: functional; settings: time 20-24 hrs
[37] = system: Staphylococcus aureus; assay: Antibacterial activity against Staphylococcus aureus ATCC 25923 infected in kunming mouse assessed as reduction in viable pathogens at 32.5 mg/kg, iv measured after 1 hr; format: functional, organism-based
[38] = system: Escherichia coli; assay: Induction of drug resistance in Escherichia coli ATCC 25922 assessed as increase in MIC measured after 30 passages by broth microdilution method; format: functional

SMILES	MIC [1] [µg/mL]	MIC [2] [µg/mL]	MIC [3] [µg/mL]	MIC [4] [µg/mL]	MIC [5] [µg/mL]	MIC [6] [µg/mL]	MIC [7] [µg/mL]	MIC [8] [µg/mL]	MIC [9] [µg/mL]	MIC [10] [µg/mL]	MIC [11] [µg/mL]	MIC [12] [µg/mL]	MIC [13] [µg/mL]	MIC [14] [µg/mL]	MIC [15] [µg/mL]	MIC [16] [µg/mL]	MIC [17] [µg/mL]	MIC [18] [µg/mL]	MIC [19] [µg/mL]	MIC [20] [µg/mL]	further results
C[C@@H](O)[C@H]1C(=O)N2C(C(=O)O)=C(S[C@@H]3CN[C@H](C(=O)N(C)C)C3)[C@H](C)[C@H]12 [MEROPENEM]	< 0.0625	0.0625 (≈ 0.163 µM)	8 (≈ 20.9 µM)	8 (≈ 20.9 µM)	< 0.0625	0.125 (≈ 0.326 µM)	< 0.0625	< 0.0625	< 0.0625	0.0625 (≈ 0.163 µM)	0.0625 (≈ 0.163 µM)	< 0.0625	< 0.0625	< 0.0625	< 0.0625	< 0.0625	< 0.0625	< 0.0625	< 0.0625	< 0.0625	
CC[C@H]1OC(=O)C[C@@H](O)[C@H](C)[C@@H](O[C@@H]2O[C@H](C)[C@@H](O[C@H]3C[C@@](C)(O)[C@@H](O)[C@H](C)O3)[C@H](N(C)C)[C@H]2O)[C@@H](CC=O)C[C@@H](C)C(=O)/C=C/C(C)=C/[C@@H]1CO[C@@H]1O[C@H](C)[C@@H](O)[C@@H](OC)[C@H]1OC [TYLOSIN]	> 32	0.5 (≈ 0.546 µM)	1 (≈ 1.09 µM)	1 (≈ 1.09 µM)	> 32	> 32	> 32	> 32	0.25 (≈ 0.273 µM)	0.5 (≈ 0.546 µM)	> 32	> 32	> 32	> 32	> 32	> 32	> 32	32 (≈ 34.9 µM)	> 32	> 32	MIC [21]: 0.5 µg/mL (≈ 0.546 µM); MIC [22]: 1 µg/mL (≈ 1.09 µM); MIC [23]: 0.5 µg/mL (≈ 0.546 µM); MIC [24]: > 32 µg/mL; MIC [25]: > 32 µg/mL; MIC [26]: 1 µg/mL (≈ 1.09 µM); MIC [27]: > 32 µg/mL; MIC [28]: 2 µg/mL (≈ 2.18 µM); MIC [29]: 0.5 µg/mL (≈ 0.546 µM); MIC [30]: > 32 µg/mL
CC[C@H]1OC(=O)C[C@@H](O)[C@H](C)[C@@H](O[C@@H]2O[C@H](C)[C@@H](O)[C@H](N(C)C)[C@H]2O)[C@@H](CCN2CCCCC2)C[C@@H](C)C(=O)/C=C/C(C)=C/[C@@H]1CN1CCCCC1 [TILDIPIROSIN]	0.5 (≈ 0.681 µM)	16 (≈ 21.8 µM)	32 (≈ 43.6 µM)	32 (≈ 43.6 µM)	4	1 (≈ 1.36 µM)	4	2	32 (≈ 43.6 µM)	16 (≈ 21.8 µM)	16 (≈ 21.8 µM)	1 (≈ 1.36 µM)	1 (≈ 1.36 µM)	8 (≈ 10.9 µM)	2 (≈ 2.72 µM)	2	2 (≈ 2.72 µM)	4 (≈ 5.45 µM)	16 (≈ 21.8 µM)	2 (≈ 2.72 µM)	MIC [21]: 0.5 µg/mL (≈ 0.681 µM); Ratio [31]: 4; MIC [32]: 16 µg/mL (≈ 21.8 µM); MIC [22]: 4 µg/mL (≈ 5.45 µM); MIC [23]: 2 µg/mL (≈ 2.72 µM); Ratio [33]: >2; MIC [24]: 4 µg/mL; inhibition [34]: 26.5%; MIC [25]: 16 µg/mL; MBC [35]: 4 µg/mL (≈ 5.45 µM); MBC [36]: > 32 µg/mL; Activity [37]: Active; MIC [26]: 4 µg/mL (≈ 5.45 µM); MIC [27]: 16 µg/mL; MIC [28]: 4 µg/mL (≈ 5.45 µM); MIC [29]: 1 µg/mL (≈ 1.36 µM); MIC [30]: 8 µg/mL
CC(=O)NC[C@H]1CN(c2ccc(N3CCOCC3)c(F)c2)C(=O)O1 [LINEZOLID]		1 (≈ 2.96 µM)	2 (≈ 5.93 µM)	2 (≈ 5.93 µM)		> 32			1 (≈ 2.96 µM)		> 32			> 32				32 (≈ 94.9 µM)	32 (≈ 94.9 µM)		MIC [21]: 0.25 µg/mL (≈ 0.741 µM); MIC [22]: 1 µg/mL (≈ 2.96 µM); MIC [23]: 0.5 µg/mL (≈ 1.48 µM); MIC [24]: > 32 µg/mL; MIC [25]: > 32 µg/mL; Activity [38]: Active; MIC [27]: > 32 µg/mL; MIC [29]: 0.25 µg/mL (≈ 0.741 µM); MIC [30]: > 32 µg/mL
CS(=O)(=O)c1ccc([C@@H](O)[C@@H](CF)NC(=O)C(Cl)Cl)cc1																					Activity [38]: Active
